Patent US20240200005A1, “METHOD FOR DEVELOPING AND/OR REPROGRAMMING PLANT CELLULAR OBJECTS” (SCREENSYS GMBH, priority 2021, published 2024)

System: microspores of Brassica napus
Assay: Dose-response of TSA trigger on growth/reprogramming of microspores in microfluidic compartments (image-based size analysis)
Assay type: cell-based
Settings: for percentage of total microspores larger than 45 μm (multicellular stage): after 3 days
From the text: For the cultivation of the microspores, the desired compartment sequences were generated by application of the system as shown in FIG. 1. The core of the system 2 was a five-channel precision syringe pump 11 (NEMESYS Cetoni GmbH, Germany) which can feed up to five fluids 6a-6e carried in glass syringes 20 (SETonic GmbH, Germany). One channel was used for the delivery of perfluoro-methyldecalin (PP9) as carrier fluid 6/6a, which is immiscible with the other fluids and thus separates the individual aqueous compartments 4 from one another inside the generated compartment 4 sequence. Another channel was used for 1×NLN13 (recipe below) medium 6b to dilute the medium with the microspores 14 and adjust the total volume of the compartments 4, and thus the concentration of the plant cellular objects 14 and the other substances, during formation. Two different trigger solutions 6c, 6d were used in channels three and four. Channel five was used for dosing the cell suspension, i.e. the medium with the plant cellular objects 14, itself. A cell container vial 12 was employed to feed the microspores 14 into the compartment generator 10. For this, a small conical glass vial 12 with a capacity of about 2 ml was used (See FIG. 1). The vial 12 was filled with the microspore suspension, i.e. medium with plant cellular objects 14, and closed airtight and free of air bubbles. The initial microspore density in the vial 12 was about 700.000 microspores/ml.
By syringe pump-controlled addition of medium 6e into the container 12 the suspended microspores 14 were fed through the container outlet conduit 16, a 0.2 mm ID FEP tube, into the compartment generator 10. ID stands for inner diameter. Instead of medium 6e it is also contemplated to add carrier fluid 6 to the container 12 with the suspended microspores. The individual syringes 20 were connected with the compartment generator 10 via respective conduits 17. Compartments 4 of about 120 nL volume each were formed and forwarded in a 0.5 mm ID PTFE tube as the microfluidic conduit 8 for incubation. A detailed description of the used compartment generator 10 can be found in “Cao J, Richter F, Kastl M, Erdmann J, Burgold C, Dittrich D, Schneider S, Köhler J M, Groß GA (2020) Droplet-Based Screening for the Investigation of Microbial Nonlinear Dose-Response Characteristics System, Background and Examples. Micromachines. 10.3390/mi1106057”, which is incorporated herein in its entirety by reference. For sufficient diffusive aeration during long-time incubation times, PTFE tubes with low wall thickness were used (inner diameter: 0.5 mm, outer diameter: 1.0 mm). Typical flow rate conditions of about 30 μl/min for the aqueous phases, i.e. the sample fluid, i.e. the medium 6b, the medium with the plant cellular objects, and the trigger solutions 6c, 6d, and about 100 μl/min for the embedding phase, i.e. the carrier fluid 6a, were used. […] However, other tube materials and dimensions may be used.
For a dose-response experiment the Trichostatin A (TSA) was chosen as a trigger. The stimulating effect of TSA on the germination of the microspores 14 was investigated in a concentration range from 0.01 μM up to 5 μM. Therefore, TSA stock solutions of 0.2 μM TSA 6c and 10 μM TSA 6d were used in the syringes 20 for triggers 1 and 2. The application of an appropriate flow rate program yielded the compartment 4 sequence with the desired concentrations of TSA in the compartments 4, as shown in FIG. 2. The resulting compartments 4 were composed of 50% volume microspore suspension, 50%-0% dilution medium 6b and 0-50% of the trigger solution 6c, 6d. Depending on the intended concentration of TSA in the generated compartments 4, either 0.2 μM TSA solution 6c or 10 μM TSA solution 6d was added to the generated compartments 4. The flow rate for the carrier medium 6e, here PP9, was kept constant at 50 μl/min. […]

## CC(/C=C/C(=O)NO)=C\[C@@H](C)C(=O)c1ccc(N(C)C)cc1 [TSA, Trichostatin A]
0.01 μM TSA, after 3 days incubation at 32° C.
  percentage of microspores larger than 35 μm: about 3%
0.01 μM TSA, after 6 days versus 3 days
  change of percentage of microspores larger than 35 μm: increased only marginally
0.05 μM TSA
  percentage of total microspores larger than 45 μm (multicellular stage): about 1%
0.05 μM TSA, after 6 days
  percentage of total microspores with a diameter of at least 35 μm: about 8%
  percentage of very large microspores (>45 μm): about 2%
0.1 μM TSA
  percentage of total microspores larger than 45 μm (multicellular stage): about 1%
0.1 μM TSA, after 3 days incubation at 32° C.
  percentage of microspores larger than 35 μm: ~9%
0.1 μM TSA, after 6 days
  percentage of microspores larger than 35 μm (total column): 11.4%
  proportion of microspores larger than 45 μm: 4.4%
0.35 μM TSA
  percentage of total microspores larger than 45 μm (multicellular stage): about 1%
0.35 μM TSA, after 3 days incubation at 32° C.
  percentage of microspores larger than 35 μm: 8%
0.35 μM TSA, after 6 days
  percentage of microspores larger than 35 μm: 11.7%
  percentage of very large microspores (>45 μm): 3.8%
0.5 μM TSA, after 3 days incubation at 32° C.
  percentage of microspores larger than 35 μm: about 4.4%
0.5 μM TSA, after 6 days
  percentage of total microspores with a diameter of at least 35 μm: about 8%
  percentage of very large microspores (>45 μm): about 2%
1 μM TSA, after 3 days incubation at 32° C.
  percentage of microspores larger than 35 μm: ~4%
1 μM TSA, after 6 days
  green portion of column (microspores larger than 45 μm): approximately 1.7%
  percentage of microspores larger than 35 μm (total column height): 6.4%
2 μM TSA, after 3 days incubation at 32° C.
  percentage of microspores larger than 35 μm: ~0%
2 μM TSA, after 6 days
  percentage of microspores larger than 35 μm: about 1.3%
5 μM TSA, after 3 days incubation at 32° C.
  percentage of microspores larger than 35 μm: 0%
5 μM TSA, after 6 days
  growth of microspores: without any recognizable growth
0.05 M TSA (so in the source), after 3 days incubation at 32° C.
  percentage of microspores larger than 35 μm: approximately 7.6%
microspores, no recognizable growth after 6 days
  lethal dose: 5 µM
